Experimental data published in patent publication CN109096271A, “噻吩类化合物及其作为usp7抑制剂和抗肿瘤药物的应用” (China Pharmaceutical University, priority 2018, dated 2018).
pIC50: −log10 of the molar value.

Legend:
[1] = target: T1, full-length USP7 enzyme [全长USP7酶] (Homo sapiens, UniProt Q93009); assay: Inhibition of full-length USP7 enzyme in vitro (Ub-AMC method); assay type: biochemical; details: half-maximal inhibitory concentration; full-length USP7, Ub-AMC substrate, 30 min preincubation at room temperature (25℃), 2 h reaction, pH 7.6; read-out: EC50 (the source's name)
T1 construct: 全长USP7蛋白,Ub-AMC底物蛋白,实验缓冲液
T1 sequence (Q93009 whole entry): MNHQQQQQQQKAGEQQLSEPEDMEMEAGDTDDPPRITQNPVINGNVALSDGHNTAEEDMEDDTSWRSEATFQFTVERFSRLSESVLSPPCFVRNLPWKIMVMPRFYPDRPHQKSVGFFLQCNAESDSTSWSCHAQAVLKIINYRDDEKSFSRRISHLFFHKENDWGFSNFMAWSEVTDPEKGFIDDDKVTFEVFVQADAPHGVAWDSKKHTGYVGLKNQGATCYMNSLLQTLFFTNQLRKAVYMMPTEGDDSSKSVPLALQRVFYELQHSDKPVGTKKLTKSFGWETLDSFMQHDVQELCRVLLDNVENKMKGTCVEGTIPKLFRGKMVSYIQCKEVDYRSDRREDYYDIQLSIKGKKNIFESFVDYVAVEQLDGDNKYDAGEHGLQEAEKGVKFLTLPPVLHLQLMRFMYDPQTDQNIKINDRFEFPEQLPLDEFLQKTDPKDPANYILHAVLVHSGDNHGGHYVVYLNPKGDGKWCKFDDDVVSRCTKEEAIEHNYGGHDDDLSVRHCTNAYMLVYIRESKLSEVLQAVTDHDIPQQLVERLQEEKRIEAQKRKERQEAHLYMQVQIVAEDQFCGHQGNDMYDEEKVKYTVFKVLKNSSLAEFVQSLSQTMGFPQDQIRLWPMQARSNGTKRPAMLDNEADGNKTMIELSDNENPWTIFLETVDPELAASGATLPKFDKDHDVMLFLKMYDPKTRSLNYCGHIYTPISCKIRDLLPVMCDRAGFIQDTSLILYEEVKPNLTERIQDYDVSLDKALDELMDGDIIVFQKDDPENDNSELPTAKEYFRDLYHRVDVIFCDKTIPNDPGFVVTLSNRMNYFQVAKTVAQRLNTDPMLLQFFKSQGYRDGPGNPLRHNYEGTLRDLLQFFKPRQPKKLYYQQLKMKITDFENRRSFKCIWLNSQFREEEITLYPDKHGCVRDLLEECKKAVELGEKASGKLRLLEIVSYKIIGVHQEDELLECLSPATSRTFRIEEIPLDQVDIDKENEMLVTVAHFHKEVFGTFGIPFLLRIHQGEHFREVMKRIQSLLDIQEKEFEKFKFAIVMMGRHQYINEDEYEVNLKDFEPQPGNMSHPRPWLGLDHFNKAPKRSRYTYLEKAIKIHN

[2] = tested on: human colon cancer cells HCT-116 [人结肠癌细胞HCT-116]; assay: Antiproliferative activity on human colon cancer HCT-116 cells (MTT staining); assay type: cell-based; details: HCT-116 wild type, 72 h

| Molecule | pIC50 [1] | pIC50 ([2]; Homo sapiens) | pIC50 [2] |
| --- | --- | --- | --- |
| CN1CCN(CC(=O)Nc2ccc(NC(=O)c3cc([N+](=O)[O-])c(Sc4c(Cl)cncc4Cl)s3)cc2)CC1 [I-15, 5-((3,5-二氯吡啶-4-基)硫基)-N-(4-(2-(4-甲基哌嗪-1-基)乙酰氨基)苯 基)-4-硝基噻吩-2-甲酰胺] | 5.14 | 5.31 |  |
| CC1CS(=O)(=O)c2cc(NC(=O)c3cc([N+](=O)[O-])c(Sc4c(Cl)cncc4Cl)[nH]3)ccc21 (stereo not shown) [I-2, 5-((3,5-二氯吡啶-4-基)硫基)-N-(3-甲基-1,1-二氧代-2,3-二氢苯并[b]噻吩-6-基)-4-硝基-1H-吡咯-2-甲酰胺] | < 4.30 | < 4.30 |  |
| O=C(NCCN1CCOCC1)c1cc([N+](=O)[O-])c(Sc2c(Cl)cncc2Cl)s1 [I-16, 5-((3,5-二氯吡啶-4-基)硫基)-N-(2-吗啉代乙基)-4-硝基噻吩-2-甲酰胺] | 5.34 | 5.32 |  |
| CN1CCCN(c2ccc(NC(=O)c3cc([N+](=O)[O-])c(Sc4c(Cl)cncc4Cl)s3)cc2)CC1 [I-7, 5-((3,5-二氯吡啶-4-基)硫基)-N-(4-(4-甲基-1,4-二氮杂环庚烷-1-基)苯基)-4-硝基噻吩-2-甲酰胺] | 5.16 | 5.46 |  |
| CS(=O)(=O)N1CCN(c2ccc(NC(=O)c3cc([N+](=O)[O-])c(Sc4c(Cl)cncc4Cl)s3)cc2)CC1 [I-9, 5-((3,5-二氯吡啶-4-基)硫基)-N-(4-(4-(甲基磺酰基)哌嗪-1-基)苯基) -4-硝基噻吩-2-甲酰胺] | 4.37 | 5.52 |  |
| CN(C)CCN1CCN(C(=O)c2cc([N+](=O)[O-])c(Sc3c(Cl)cncc3Cl)s2)CC1 [I-17, (5-((3,5-二氯吡啶-4-基)硫基)-4-硝基噻吩-2-基)(4-(2-(二甲基氨基)乙 基)哌嗪-1-基)甲酮] | 5.18 | 5.07 |  |
| CC1CS(=O)(=O)c2cc(NC(=O)c3cc([N+](=O)[O-])c(Sc4c(Cl)cncc4Cl)o3)ccc21 (stereo not shown) [I-1, 5-((3,5-二氯吡啶-4-基)硫基)-N-(3-甲基-1,1-二氧代-2,3-二氢苯并[b]噻吩-6-基)-4-硝基呋喃-2-甲酰胺] | < 4.30 | < 4.30 |  |
| O=C(NCCc1ccc2c(c1)OCO2)c1cc([N+](=O)[O-])c(Sc2c(Cl)cncc2Cl)s1 [I-18, N-(2-(苯并[d][1,3]二氧杂环戊烯-5-基)乙基)-5-((3,5-二氯吡啶-4-基)硫基)-4-硝基噻吩-2-甲酰胺] | < 4.30 | < 4.30 |  |
| CC1CS(=O)(=O)c2cc(NC(=O)c3cc([N+](=O)[O-])c(Sc4c(Cl)cncc4Cl)n3C)ccc21 (stereo not shown) [I-3, 5-((3,5-二氯吡啶-4-基)硫基)-1-甲基-N-(3-甲基-1,1-二氧代-2,3-二氢苯并[b] 噻吩-6-基)-4-硝基-1H-吡咯-2-甲酰胺] | < 4.30 | < 4.30 |  |

Second part, the molecule after the results:

| pIC50 [1] | pIC50 ([2]; Homo sapiens) | pIC50 [2] | Molecule |
| --- | --- | --- | --- |
| 5.34 | 5.70 |  | CN1CCCC(Oc2ccc(NC(=O)c3cc([N+](=O)[O-])c(Sc4c(Cl)cncc4Cl)s3)cc2)CC1 (stereo not shown) [I-6, 5-((3,5-二氯吡啶-4-基)硫基)-N-(4-((1-甲基吖庚烷-4-基)氧基)苯基)-4-硝基噻吩-2-甲酰胺] |
| 5.43 |  | 5.49 | ((3,5-二氯吡啶-4-基)硫基)-N-(4-((2-(4-甲基哌嗪-1-基)乙酰氨基)甲基) 苯基)-4-硝基噻吩-2-甲酰胺 [I-13] |
| 5.93 | 5.74 |  | O=C(NCCN1CCOCC1)c1ccc(NC(=O)c2cc([N+](=O)[O-])c(Sc3c(Cl)cncc3Cl)s2)cc1 [I-12, ((3,5-二氯吡啶-4-基)硫基)-N-(4-((2-吗啉代乙基)氨基甲酰基)苯基)-4-硝基噻吩-2-甲酰胺] |
| 5.53 | 5.47 |  | CN1CCN(C(=O)c2ccc(NC(=O)c3cc([N+](=O)[O-])c(Sc4c(Cl)cncc4Cl)s3)cc2)CC1 [I-10, 5-((3,5-二氯吡啶-4-基)硫基)-N-(4-(4-甲基哌嗪-1-羰基)苯基)-4-硝基噻吩-2-甲酰胺] |
| 5.44 | 5.32 |  | CN1CCN(CC(=O)NCc2ccc(NC(=O)c3cc([N+](=O)[O-])c(Sc4c(Cl)cncc4Cl)s3)cc2)CC1 [I-14, ((3,5-二氯吡啶-4-基)硫基)-N-(4-((2-(4-甲基哌嗪-1-基)乙酰氨基)甲基) 苯基)-4-硝基噻吩-2-甲酰胺] |
| 5.55 | 5.62 |  | CN1CCC(Oc2ccc(NC(=O)c3cc([N+](=O)[O-])c(Sc4c(Cl)cncc4Cl)s3)cc2)CC1 [I-5, 5-((3,5-二氯吡啶-4-基)硫基)-N-(4-((1-甲基哌啶-4-基)氧基)苯基)-4-硝基噻吩-2-甲酰胺] |
| 5.60 | 5.12 |  | CN(C)CCN1CCN(C(=O)c2ccc(NC(=O)c3cc([N+](=O)[O-])c(Sc4c(Cl)cncc4Cl)s3)cc2)CC1 [I-11, 5-((3,5-二氯吡啶-4-基)硫基)-N-(4-(4-(2-(二甲基氨基)乙基)哌嗪-1-羰基)苯基)-4-硝基噻吩-2-甲酰胺] |
| 5.35 | 5.58 |  | CN1CCC(Oc2ccc(NC(=O)c3cc([N+](=O)[O-])c(Sc4c(Cl)cncc4Cl)s3)cc2)C1 (stereo not shown) [I-4, 5-((3,5-二氯吡啶-4-基)硫基)-N-(4-((1-甲基吡咯烷-3-基)氧基)苯基) -4-硝基噻吩-2-甲酰胺] |
